The data set can be described thus: In vivo absorption of lofexidine from the sublingual cavity (pharmacokinetics, sublingual vs intravenous). Further details: species or system rabbit. As to the method: These experiments determine the bioavailability of lofexidine after transmucosal administration to the sublingual tissue in rabbit and compare it to that after intravenous administration.
The transmucosal absorption of lofexidine was measured using an in vivo technique in rabbits. Following introduction of lidocaine local anesthesia, a catheter was placed in the marginal ear artery of the rabbit for blood sample collection. For intravenous administration, a catheter was placed in the marginal ear vein of the rabbit and lofexidine hydrochloride aqueous solution (0.1 mL) was administered; a sterile drug solution was prepared by filtration (double 0.22 μm filters). A dose of 1 mg/kg lofexidine was injected into the marginal ear vein cannula followed by a 0.1 mL flush with 10% (v/v) heparin/normal saline solution to keep the cannula patent.
For sublingual administration, the lofexidine dose (1 mg/kg, 0.1 mL) of the lofexidine formulation was applied to the sublingual mucosa of the rabbit.
Aliquot parts of 1 mL blood samples were collected at predetermined time points, collected into pre-heparinized tubes and immediately placed on ice. Plasma was separated by centrifugation at 3000 rpm for 10 min, placed in polypropylene tubes, and frozen at −20° C. until the time of analysis.
Bioavailability of sublingually administered drug was calculated by comparing the plasma drug concentration between sublingual and intravenous delivery routes and expressed as a percentage of the intravenous bioavailability.
The formulation instilled into the sublingual area of the rabbits in this experiment had the following composition: • Lofexidine hydrochloride 6000 mg • Isopropanol 2 mL • Phosphate buffer (0.05 M, pH 6)
The lofexidine is dissolved in the isopropanol and the phosphate buffer to make the volume up to 200 mL.
The internal standard (IS) solution was prepared by dissolving d^4-lofexidine in a methanol:water (50:50) mixture to get a (1000 ng/mL) concentration. Plasma samples (50 μL) were spiked with IS solution (10 μL), followed by vortex mixing for 1 minute. The mixture was mixed with acetonitrile (50 μL) to precipitate plasma proteins and allowed to vortex for another minute. After centrifugation for 10 minute at 10,000 rpm, the supernatant was collected into HPLC vials in preparation for analysis by Ultra Performance Liquid Chromatography Mass Spectroscopy (UPLC/MS) system.
All analytical procedures were performed using a Waters Acquity® Ultra UPLC/MS. An Acquity UPLC BEH Shield RP18 (2.1×100 mm) column (Waters) was used to separate the chemical components at 40° C. The flow rate was 0.3 mL/min of two mobile phases, (A) made of 5 mM ammonium acetate (pH 4) and acetonitrile (90:10) and (B) of acetonitrile, 5 mM ammonium acetate (pH 4) (90:10). The mass spectrometer was operated in the positive electrospray ionization (ESI) mode. The capillary voltage and cone voltage were maintained at 0.6 kV and 35 V, respectively. The source temperature and desolvation temperature were set at 100 and 350° C., respectively. Nitrogen was used as both the cone gas (50 L/h) and the desolvation gas (700 L/h). Mass chromatograms and mass spectral data were acquired and processed by MassLynx software (Waters).

The mark [1] stands for this setting: rabbit, sublingual administration, 1 mg/kg single dose, rabbits (n = 3), plasma, average.

Take `CC(Oc1c(Cl)cccc1Cl)C1=NCCN1` (stereo not drawn) [lofexidine, 2-[1-(2,6 dichlorophenoxy)ethyl]-4,5-dihydro-1H-Imidazole]: the bioavailability (rabbit, other: sublingual (transmucosal), sublingual vs intravenous, 1 mg/kg, rabbits, from areas under the plasma concentration versus time curves, read-out: bioavailability (of the administered dose, relative to intravenous)) was about 80%. For the same compound, where the note is “rabbit, sublingual administration, 1 mg/kg single dose, rabbits (n = 3), plasma”, the time of peak concentration (Tmax) is 10 min. Under setting [1], the Cmax stood at 392 ± 127 ng/mL and the half-life amounted to 75 ± 2.7 min. Besides, the “time of peak plasma concentration following transmucosal administration” value (sublingual route, 1 mg/kg, rabbits) is listed as “approximately 10 minutes”. Further, the “absorption following transmucosal administration through the sublingual route” value (sublingual, 1 mg/kg, rabbits, comparing AUCs with intravenous) was “rapidly and completely absorbed”.

These data come from patent publication US20130095174A1, “Compositions and Methods for Transmucosal Delivery of Lofexidine” (US WORLDMEDS, LLC, priority 2008, published 2013).
